# From patent publication US11786494B2, “Methods of modulation of branched chain acids and uses thereof” (Baylor College of Medicine, priority 2009, dated 2023)
# “Also recorded” adds a separate entry of the source.
# How the values were obtained:
# [1] = tested on: phosphorylated E1-α subunit of BCKDC; assay: Western blot of liver extract for phosphorylated E1 subunit of BCKDC; format: in vivo, C57B6 mice; conditions: 50 mg/kg/day oral gavage in 3 administrations, 3 days, N=5 per group, p<0.05
# Protocol: FIG. 5 is a Western blot analysis of liver extract using an antibody against the phosphorylated form of the E1 subunit of BCKDC from C57B6 mice (N=5 mice per group) treated with phenylbutyrate or placebo. To investigate the effect and mechanism of phenylbutyrate on the BCKD, mice (n=5) were treated with saline or 50 mg/kg/day of phenylbutyrate divided into three administrations for three consecutive days and after three days of treatment they were sacrificed for analyses. Proteins were extracted from mouse livers and a western blot performed using an anti-phosphoserine BCKDC antibody, the anti-BCKDC-E1 antibody, and the anti-BCKDC-E2 antibody. Each lane corresponds to the liver extract from an independent mouse (from #1 to #3).
# A post-translational mechanism of regulation of the activity of BCKDC by covalent modification by phosphorylation. In order to investigate the effect and mechanism of phenylbutyrate-mediated increased activity of BCKDC, Buphenyl® or saline were given orally to C57B6 mice (N=5 mice per group) by gavage at the dose of 50 mg/kg/day divided into 3 administrations for 3 consecutive days. After three days of treatment the animals were sacrificed to harvest the liver samples. Proteins were extracted from mouse livers by homogenizing the tissue in a buffer containing 5% SDS and 0.0625 M TrisHCl. […]
# [2] = target: T1, mitochondrial branched chain amino transferase (BCATm) (Homo sapiens, UniProt O15382); assay: BCATm activity with purified recombinant enzyme; format: biochemical; conditions: pH 8.0, 298 K
# T1 sequence (O15382 28-392): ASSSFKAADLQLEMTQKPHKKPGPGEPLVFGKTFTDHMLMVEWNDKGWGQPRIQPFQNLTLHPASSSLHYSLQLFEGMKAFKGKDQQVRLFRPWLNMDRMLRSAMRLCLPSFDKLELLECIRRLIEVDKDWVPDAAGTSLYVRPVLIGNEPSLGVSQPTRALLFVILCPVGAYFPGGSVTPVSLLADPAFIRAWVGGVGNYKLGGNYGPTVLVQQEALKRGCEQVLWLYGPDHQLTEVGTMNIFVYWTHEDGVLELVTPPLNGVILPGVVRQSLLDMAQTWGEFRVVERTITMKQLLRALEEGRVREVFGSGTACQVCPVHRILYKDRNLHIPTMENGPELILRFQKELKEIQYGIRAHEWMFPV
# Protocol: (§1) To determine the effect of phenylbutyrate on individual BCAA catabolic enzymes, activities of mitochondrial branched chain amino transferase (BCATm) and BCKDC enzymes were measured with and without phenylbutyrate using purified recombinant enzymes. BCATm generates the BCKA products that are elevated in MSUD and are the substrates for BCKDC. BCATm activity was measured at pH 8.0 and 298 K as described in Example 2. Kinetics of the E1 decarboxylase reaction with and without phenylbutyrate were determined in the presence of an artificial electron acceptor 2, 6-dichlorophenolindophenol (DCPIP). The assay mixture contained 100 mM potassium phosphate, pH 7.5, 2.0 mM MgCl2, 0.2 mM thiamin diphosphate (ThDP) and 0.1 mM DCPIP. The rate of decarboxylation at 30° C. was measured by monitoring the reduction of the dye at 600 nm (24, 25). For the overall BCKDC activity assay, the enzymes were exchanged into phosphate buffer (30 mM potassium phosphate, pH 7.5) containing 5 mM DTT using a PD-10 column and the enzyme concentrations were calculated from the absorption maxima at 280 nm. […] The overall reaction was monitored by formation of NADH at 340 nm. The apparent rate constants (kapp) at different substrate concentrations for all of the above assays were determined from the absorption changes at the individual wavelength maximum. […]
# [3] = target: T2, BCKDC (Homo sapiens, UniProt P12694+P21953); assay: Overall BCKDC activity assay (reconstituted E1, lip-E2, E3; NADH formation); format: biochemical; conditions: Activity of BCKDC, [+] Phenylbutyrate
# T2 sequence (P12694 46-445): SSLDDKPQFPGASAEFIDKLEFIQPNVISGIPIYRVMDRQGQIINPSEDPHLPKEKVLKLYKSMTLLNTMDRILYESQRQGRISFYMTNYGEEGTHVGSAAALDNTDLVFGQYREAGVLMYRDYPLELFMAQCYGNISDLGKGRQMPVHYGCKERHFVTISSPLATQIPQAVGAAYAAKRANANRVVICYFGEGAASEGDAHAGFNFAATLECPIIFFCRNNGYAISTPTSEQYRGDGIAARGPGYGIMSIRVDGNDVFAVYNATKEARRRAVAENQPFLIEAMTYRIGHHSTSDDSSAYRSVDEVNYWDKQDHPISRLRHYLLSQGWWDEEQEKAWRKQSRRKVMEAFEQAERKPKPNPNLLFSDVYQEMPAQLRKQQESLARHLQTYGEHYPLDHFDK
# T2 sequence (P21953 51-392): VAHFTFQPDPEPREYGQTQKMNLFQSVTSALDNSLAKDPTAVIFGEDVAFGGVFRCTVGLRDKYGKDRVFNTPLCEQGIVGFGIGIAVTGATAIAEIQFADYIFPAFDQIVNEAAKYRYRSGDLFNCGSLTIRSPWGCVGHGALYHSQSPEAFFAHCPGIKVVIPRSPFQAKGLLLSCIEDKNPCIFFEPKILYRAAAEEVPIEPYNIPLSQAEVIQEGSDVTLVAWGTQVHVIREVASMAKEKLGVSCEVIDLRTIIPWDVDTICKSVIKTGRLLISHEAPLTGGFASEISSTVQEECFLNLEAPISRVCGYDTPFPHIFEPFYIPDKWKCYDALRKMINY
# Protocol: as §1
smiles,measurement,setting,value
"O=C([O-])CCCc1ccccc1.[Na+] [phenylbutyrate, sodium 4-phenylbutyrate]",phosphorylated E1-α subunit of BCKDC in liver vs saline treated mice,[1],significant reduction; also recorded: significantly reduced
same,BCATm kinetics including kcat and Km,[2],no effect
same,"kcat, KMV",[3],226.0 ± 18.0 min⁻¹
